ChEMBL document CHEMBL1201862, “PubChem BioAssay data set” (2004)
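1) Cells in 96-well plates. 2) Compound, 48 h, 5 concentrations. 3) Linear interpolation between surrounding doses. 4) Unreached endpoint = highest concentration. At the GI50, growth is halved.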 Activity calls are given as the source filed them. Cut-off read from the data, not from the text of the source: active = GI50 up to about 1.1 µM and inactive = higher.

Tests used:
Assay in all cases: inhibition of tumour cell growth, NCI panel, 48 h
RXF 393 = system: RXF 393
DU-145 = system: DU-145
T47D = system: T47D
A549 = system: A549
SW-620 = system: SW-620
BT-549 = system: BT-549
KM12 = system: KM12
K562 = system: K562
HL-60 = system: HL-60
A498 = system: A498
MDA-MB-435 = system: MDA-MB-435
NCI-H460 = system: NCI-H460
UO-31 = system: UO-31
SN12C = system: SN12C
MCF7 = system: MCF7
SF-268 = system: SF-268
NCI-H226 = system: NCI-H226
MDA-MB-231 = system: MDA-MB-231
UACC-257 = system: UACC-257
CCRF-CEM = system: CCRF-CEM
SK-MEL-5 = system: SK-MEL-5
SK-MEL-28 = system: SK-MEL-28
SK-OV-3 = system: SK-OV-3
NCI-H522 = system: NCI-H522
PC-3 = system: PC-3
UACC-62 = system: UACC-62
SNB-19 = system: SNB-19
786-0 = system: 786-0
COLO 205 = system: COLO 205
OVCAR-3 = system: OVCAR-3
SR = system: SR
Malme-3M = system: Malme-3M
U-251 = system: U-251
ACHN = system: ACHN
HCT-116 = system: HCT-116
OVCAR-5 = system: OVCAR-5
HCC 2998 = system: HCC 2998
Hs-578T = system: Hs-578T
SF-295 = system: SF-295
HCT-15 = system: HCT-15
NCI-H23 = system: NCI-H23
NCI/ADR-RES = system: NCI/ADR-RES
M14 = system: M14
SF-539 = system: SF-539
MDA-N = system: MDA-N
SK-MEL-2 = system: SK-MEL-2
SNB-75 = system: SNB-75
TK-10 = system: TK-10
MOLT-4 = system: MOLT-4
HT-29 = system: HT-29
IGROV-1 = system: IGROV-1
HOP-92 = system: HOP-92
EKVX = system: EKVX
OVCAR-4 = system: OVCAR-4
RPMI-8226 = system: RPMI-8226
CAKI-1 = system: CAKI-1
OVCAR-8 = system: OVCAR-8
HOP-62 = system: HOP-62
LOX IMVI = system: LOX IMVI

Measured: GI50

S=c1[nH]c(=S)c2cc(Sc3ccc4[nH]c(=S)[nH]c(=S)c4c3)ccc2[nH]1
inactive: RXF 393 23.7 µM | DU-145 62.4 µM | T47D 50.5 µM | A549 59.7 µM | SW-620 48.4 µM | BT-549 31.2 µM | KM12 24 µM | K562 49.1 µM | HL-60 20.8 µM | A498 24.5 µM | MDA-MB-435 53 µM | NCI-H460 45.5 µM | UO-31 26.9 µM | SN12C 40 µM | MCF7 59.6 µM | SF-268 24.2 µM | NCI-H226 20.4 µM | MDA-MB-231 59.6 µM | UACC-257 43.3 µM | CCRF-CEM 25.6 µM | SK-MEL-5 46.9 µM | SK-MEL-28 53.8 µM | SK-OV-3 24.3 µM | NCI-H522 34.8 µM | PC-3 52.5 µM | UACC-62 20 µM | SNB-19 30.4 µM | 786-0 21.5 µM | COLO 205 26.9 µM | OVCAR-3 36.1 µM | SR 17.1 µM | Malme-3M 55.3 µM | U-251 33 µM | ACHN 35.2 µM | HCT-116 48.1 µM | OVCAR-5 > 100 µM | HCC 2998 37.3 µM | Hs-578T 22 µM | SF-295 22 µM | NCI-H23 28 µM | NCI/ADR-RES > 100 µM | M14 66.7 µM | SF-539 30.2 µM | MDA-N 40.9 µM | SK-MEL-2 45.1 µM | SNB-75 19.5 µM | TK-10 25.1 µM | MOLT-4 46.8 µM | HT-29 41 µM | IGROV-1 30 µM | HOP-92 32.3 µM | EKVX 42.2 µM | OVCAR-4 23.2 µM | RPMI-8226 17.7 µM | CAKI-1 36.6 µM | OVCAR-8 22 µM
39.2 µM: HCT-15

CC1=C(Br)C(=O)C(C)=C(Br)C1=O.Cc1c(O)c(Br)c(C)c(O)c1Br
inactive: RXF 393 1.88 µM | DU-145 2.31 µM | T47D 2.52 µM | A549 18.3 µM | SW-620 1.97 µM | HOP-62 12 µM | BT-549 5.33 µM | KM12 19.4 µM | K562 1.41 µM | A498 15.3 µM | MDA-MB-435 1.89 µM | NCI-H460 6.71 µM | UO-31 1.85 µM | SN12C 1.8 µM | MCF7 1.96 µM | SF-268 4.17 µM | NCI-H226 6.65 µM | MDA-MB-231 4.4 µM | UACC-257 1.6 µM | SK-MEL-5 4.22 µM | SK-MEL-28 1.91 µM | SK-OV-3 15.6 µM | NCI-H522 1.99 µM | PC-3 2.05 µM | UACC-62 5.55 µM | SNB-19 18.1 µM | 786-0 1.77 µM | COLO 205 1.98 µM | OVCAR-3 1.83 µM | Malme-3M 2.1 µM | U-251 6.47 µM | ACHN 1.68 µM | HCT-116 1.69 µM | OVCAR-5 10.8 µM | Hs-578T 5.92 µM | SF-295 16.3 µM | NCI-H23 2.21 µM | NCI/ADR-RES 4.31 µM | M14 1.67 µM | SF-539 4.78 µM | MDA-N 1.81 µM | SK-MEL-2 3.53 µM | SNB-75 14.2 µM | LOX IMVI 1.87 µM | TK-10 1.64 µM | HT-29 2.07 µM | IGROV-1 7.83 µM | HOP-92 1.78 µM | EKVX 1.85 µM | OVCAR-4 1.79 µM | RPMI-8226 2.27 µM | CAKI-1 2.14 µM | OVCAR-8 1.93 µM
active: HL-60 1.12 µM | CCRF-CEM 0.216 µM | SR 0.925 µM | MOLT-4 0.783 µM
2.07 µM: HCT-15
